The results in this text go back to patent US20250352486A1, “NANOPARTICLES FOR USE IN THE TREATMENT OF INFECTIONS CAUSED BY BIOFILMS” (Universitat Politècnica De València, priority 2022, published 2025).

Structures are written as SMILES.

Type in all cases: cell-based
The test system of experiment [1] is Candida albicans biofilms. Nature of the experiment: Eradication of mature Candida albicans biofilms (xCELLigence). As to conditions: mature biofilms at 24 h; micafungin 1.5 μg/ml plus zymolyase 171 μg/ml, or 0.15% hydrogen peroxide.
Procedure: Effect of platinum and mesoporous silica nanoparticles on the eradication of mature Candida albicans biofilms. C. albicans biofilms were cultured in the micro dilution plates of the xCELLigence system for 24 h and then treated with a combination of free micafungin together with zymolyase (an enzyme with the ability to disperse biofilm-forming cells), indicated in the legend as MZ, or with nanoparticles loaded with the antifungal micafungin and anchored with the enzyme zymolyase. […] The black curve represents the growth of the untreated biofilm and the black arrow indicates the time when the treatment was added.
For experiment [2], the system named is endodontic biofilms from root canals. Nature of the experiment: Disruption of endodontic biofilms (xCELLigence). As to conditions: 16 μg/ml in suspension, added after 6 h of growth. As to the method:
FIG. 4.1. Disruption of endodontic biofilms using platinum and silica nanoparticles loaded with metronidazole. Endodontic biofilms were cultured in the xCELLigence system and after 6 hours of growth they were treated with 1 mg/ml of nanoparticles containing 2.25 μg of metronidazole, or with metronidazole in suspension at a concentration of 16 μg/ml, and compared to the untreated control (black curve). The black arrow indicates the time when the biofilm was treated. The biofilm comes from root canal samples extracted during a root canal and contains a complex microbial community formed by dozens of bacteria that cause this infection. Endodontic biofilms from root canals were collected with sterile files and placed in 1 ml of VMG (Ill) transport medium ([…] et al., 1993). Subsequently, the samples were transported to the laboratory where they were subjected to stirring for 3 minutes. Then, the files were extracted, the samples were centrifuged for 5 min at 10,000 rpm and the supernatant was discarded. The obtained pellet was resuspended with 1 ml of BHI (brain-heart infusion) culture medium and the samples were cultured in micro dilution plates of the xCELLigence impedance measurement system for 6 h, following the protocol described by Mira et al. 2019 (J Oral Microbiol). […]

The subject of experiment [3] is polymicrobial oral biofilms (dental plaque). Briefly: Effect on preformed oral biofilms derived from saliva (xCELLigence). As to conditions: 16 μg/ml, two donors (A, B). As to the method:
FIG. 5.1. Effect of platinum and mesoporous silica nanoparticles loaded with metronidazole on preformed oral biofilms derived from saliva samples of two independent donors (A and B). The biofilms were grown in the xCELLigence system for 6 hours, and subsequently treated with metronidazole in suspension (concentration of 16 μg/ml) or with nanoparticles loaded with metronidazole (1 mg/ml of nanoparticles containing 2.25 μg metronidazole). The black arrows indicate the time when the treatment was added, whereas the black curves represent the untreated control. The biofilm comes from saliva samples and contains a complex microbial community made up of dozens of dental plaque-forming bacteria. To investigate the effect of platinum (Pt) and mesoporous silica nanoparticles on polymicrobial oral biofilms (dental plaque), biofilms derived from the saliva of two independent donors were cultured in the xCELLigence system for 6 hours, following the protocol described by Mira et al. 2019 (J Oral Microbiol). Subsequently, free metronidazole (at a concentration of 16 μg/ml), or nanoparticles with metronidazole (1 mg/ml of nanoparticles containing 2.25 μg of metronidazole) was added to evaluate the effect on said biofilms. […]

On to `OO` [hydrogen peroxide], for which the “effect on biofilm formation” value in experiment [1] was “induced the formation of biofilms”.

For the compound `Cc1ncc([N+](=O)[O-])n1CCO` [metronidazole], in experiment [2], the “more biofilm formation compared to the untreated control” value was “up to 15%”. Moreover, in experiment [3], the “effect on salivary biofilm growth” value is on record as “induction of biofilm growth”.
